The record followed here is publication PMC7415810, “A novel nucleolin-binding peptide for Cancer Theranostics” (Theranostics, 2020).

One test deals with CCD-18Co. The conditions noted are these: read-out: IC50, CCD-18Co; 48 h treatment, WST-1. The protocol: (§1) Cancer and normal cells (1 × 10^4 cells/well) were seeded in 96-well plates, incubated for 24 h, and then treated with increasing concentrations of AGM-330, PTX, and AGM-330-PTX for 48 h. Cell viability was assessed by the CellVia WST-1 assay (Young In Frontier) according to the manufacturer's instructions. The numbers of viable cells were measured at a wavelength of 450 nm using a VersaMax ELISA plate reader (Molecular Devices, San Jose, CA, USA).
(§2) Figure S3. A-C, Cancer and normal cells (1 × 10^4 cells/well) were seeded in 96-well plates. After 24 h of incuba-tion, the cells were treated with an increasing concentration of dimeric or tetrameric AGM-330 for 48 h. The viability of cells grown in 0 % FBS (A), 5 % FBS (B) or 10 % FBS (C) was assessed by a CellVia WST-1 assay (Young In Frontier, Seoul, Korea) according to the manufacturer’s instruction. The numbers of viable cells were measured at a wavelength of 450 nm using an VersaMax ELISA plate reader (Molecular Devices). D, E, Binding specificity of AGM-330. A whole-cell binding assay was performed to determine the cell binding of AGM-330 in 1 % FBS (D) or 5 % FBS (E). Scale bar, 200 μm.
(Tetrazolium assays rely on reduction of a dye to a coloured formazan, in cell work by metabolically active cells.)

Another test deals with HCT-116. The conditions noted are these: read-out: IC50, HCT-116; 48 h treatment, WST-1. As for the experimental part: as §1, §2
Another test has as its system HT-29. Conditions: read-out: IC50, HT-29; 48 h treatment, WST-1. The protocol: as §1, §2
In another test the test system is MCF-7. Conditions: read-out: IC50, MCF-7; 48 h treatment, WST-1. As for the experimental part:
as §1, §2

The next test deals with MDA-MB-231-luc xenograft. Description: Tumorigenesis experiment, MDA-MB-231-luc breast cancer xenograft. The conditions noted are these: 16.68 mg/kg (molar equivalent to 2 mg/kg of PTX), tail vein twice a week, n = 5. The protocol: All animal experiments were performed in accordance with IACUC guidelines (GIST-2019-040). For tumorigenesis experiments, anesthetized 6-week-old female NOD-scid Il2rg^-^/^- mice (NPG^TM, VITALSTAR) were inoculated in the mammary fat pad with 1 × 10^6 MDA-MB-231-luc cells in a 100 μl volume (n = 5 for each group). After tumor cell inoculation, when the tumor volume reached approximately 100 mm^3, the mice were randomly divided into the following five groups: (i) control, (ii) low-dose paclitaxel (2 mg/kg), (iii) high-dose paclitaxel (10 mg/kg), (iv) AGM-330 (16.68 mg/kg, molar equivalent to 2 mg/kg of PTX), and (v) AGM-330-PTX (19.05 mg/kg, molar equivalent to 2 mg/kg of PTX). The tumor size was measured twice a week, and the tumor volume was calculated with the following formula: volume (mm^3) = [length (mm)] × [width (mm)]^2 × 0.5. For the bioluminescent imaging experiment, D-luciferin (150 mg/kg; PerkinElmer) was intraperitoneally injected into each mouse, and an IVIS 100 imaging system (Xenogen, Corporation, Alameda, CA) was used for bioluminescent monitoring. Mice were anesthetized with vaporized isofurane (BK Pharm, Ilsan, Korea) and placed in an imaging chamber. After 10 min, each animal was imaged with an exposure time of 1 min. All bioluminescent image data were obtained using Living Image software (version 4.5.2, PerkinElmer). Photons detected from tumors were converted to average radiance values (photon/sec/cm^2/sr), which are quantitative data obtained from a region of […] (ROI) and include the photons emitted by bioluminescent cells from an assigned rectangular area over the whole body of each mouse.
A, Cell proliferation inhibition by AGM-330-PTX treatment was determined for 48 h by the WST assay in multiple breast and colorectal cancer cells and in normal cells. B, Schematic representation of the experimental protocol as described in the materials and methods section. Anesthetized 6‑week-old […] NPG mice were inoculated with a 1:1 mix of Matrigel and 1 × 10^6 MDA-MB-231-luc cells into the mammary fat pad. When the volume of primary tumors reached approximately 100 mm^3, tumor-bearing mice were treated with vehicle (PBS), PTX (2 or 10 mg/kg), AGM-330 (16.68 mg/kg, molar equivalent to 2 mg/kg of PTX), or AGM-330-PTX (19.05 mg/kg, molar equivalent to 2 mg/kg of PTX; n = 5/group). C-E, The therapeutic effect of AGM-330-PTX was evaluated in breast cancer xenograft models. C, Primary tumor volume was measured twice a week until the day of sacrifice. The primary tumor volume was calculated by the formula volume (mm^3) = (length (mm)) × (width (mm))^2 × 0.5. D, On the day of sacrifice, all primary tumors were isolated, and (E) the primary tumor weights were evaluated. F-I, Immunohistochemistry (IHC) sections of representative tumors with Ki-67 (F,H) and TUNEL (G,I) staining. Nuclei were stained with DAPI (blue). Scale bar, 50 µm. Bar graphs represent the mean ± SD, and statistical analyses were performed by one-way ANOVA with Dunnett's multiple comparison. *, **, and *** indicate P < 0.05, P < 0.01, and P < 0.001, respectively.
Following in vitro proliferation analysis on cancer lines, we investigated whether AGM-330-PTX could be a potential therapeutic agent in vivo. We inoculated MDA-MB-231-luc cells into the mammary fat pad of NPG mice. After the […] tumors grew to 100 mm^3, comparative efficacy studies were performed by dividing the animals into five groups (n = 5/group) treated with vehicle (PBS), PTX (2 or 10 mg/kg, respectively), AGM-330 (16.68 mg/kg, molar equivalent to 2 mg/kg of PTX), or AGM-330-PTX (19.05 mg/kg, molar equivalent to 2 mg/kg of PTX) twice a week by tail vein injection (Figure 5B). Tumor growth was monitored by measuring volumes twice a week with a caliber rule over the course of 3 weeks.
Figure S11. A-E, NPG TM mice bearing MDA-MB-231-luc tumors were treated twice a week for 21 days with […]

Usually IC50 stands for the midpoint of a concentration-inhibition curve. In the case of `CSCC[C@H](NC(=O)[C@H](C)NC(=O)CNC(=O)[C@H](Cc1c[nH]cn1)NC(=O)[C@@H](N)CCCNC(=N)N)C(=O)N[C@H](C(=O)N[C@@H](Cc1ccc(O)cc1)C(=O)N[C@@H](CC(C)C)C(=O)N[C@@H](CCCCN)C(=O)NCCOCCOCCOCCOCCOCCOCCOCCOCCOCCOCCOCCOCCC(=O)NCCCC[C@H](NC(=O)CCOCCOCCOCCOCCOCCOCCOCCOCCOCCOCCOCCOCCNC(=O)[C@H](CCCCN)NC(=O)[C@H](CC(C)C)NC(=O)[C@H](Cc1ccc(O)cc1)NC(=O)[C@@H](NC(=O)[C@H](CCSC)NC(=O)[C@H](C)NC(=O)CNC(=O)[C@H](Cc1c[nH]cn1)NC(=O)[C@@H](N)CCCNC(=N)N)C(C)C)C(=O)NCCCC[C@H](NC(=O)[C@H](CCCCNC(=O)CCOCCOCCOCCOCCOCCOCCOCCOCCOCCOCCOCCOCCNC(=O)[C@H](CCCCN)NC(=O)[C@H](CC(C)C)NC(=O)[C@H](Cc1ccc(O)cc1)NC(=O)[C@@H](NC(=O)[C@H](CCSC)NC(=O)[C@H](C)NC(=O)CNC(=O)[C@H](Cc1c[nH]cn1)NC(=O)[C@@H](N)CCCNC(=N)N)C(C)C)NC(=O)CCOCCOCCOCCOCCOCCOCCOCCOCCOCCOCCOCCOCCNC(=O)[C@H](CCCCN)NC(=O)[C@H](CC(C)C)NC(=O)[C@H](Cc1ccc(O)cc1)NC(=O)[C@@H](NC(=O)[C@H](CCSC)NC(=O)[C@H](C)NC(=O)CNC(=O)[C@H](Cc1c[nH]cn1)NC(=O)[C@@H](N)CCCNC(=N)N)C(C)C)C(=O)N[C@@H](CS)C(=O)O)C(C)C` [AGM-330], the IC50 in the test with CCD-18Co, in the test on HCT-116, with HT-29 and with MCF-7 was greater than 100 µM in each case. In addition, in the test with MDA-MB-231-luc xenograft, the “average tumor volume versus vehicle (PBS)-treated mice” value is listed as “no significant difference”.
